Experiments:
[1] = test system: rat models with a hand-foot skin reaction; assay: rat models with a hand-foot skin reaction; assay type: in vivo, SD rats
Description: After adaptive feeding for one week, SD rats (with a body weight of approximately 200 g) were randomly divided into groups with balanced body weight, with 12 rats in each group. Modeling drugs (including sorafenib, erlotinib, afatinib, and osimertinib) were respectively dissolved in a solution containing 5% of DMSO, 45% of PEG400, and 50% of H2O, and the modeling drugs were diluted to required concentrations and then administered once daily by gavage at doses shown in Table 3. After administration by gavage for 1 hour, 0.05 g of ointments containing different mass proportions of test compounds were evenly applied to left paws of the rats, a blank matrix ointment was applied to right paws of the rats to serve as a self-control, and no ointment was applied to the rats in a blank control group. After drug application, four limbs were continuously immobilized for 2 hours, then wiped with clean water to remove the residual drugs, removed from immobilization, and restored to free movement. The modeling drugs, the blank matrix ointment, and the ointments containing the test compounds were all administered once daily. After continuous administration for 30 days, the rats were euthanized, and paw plantar skin tissues were collected, fixed in 10% neutral formalin, […]. The ointments for the test compounds were prepared by mixing the compounds, white beeswax, white petrolatum, and light liquid paraffin in specific ratios (weight ratios of 3 ointments were respectively 1:18:58:23, 3:18:57:22, and 10:20:40:30). The blank matrix ointment was prepared by mixing white beeswax, white petrolatum, and light liquid paraffin in a specific ratio (weight ratio of 18:60:22).
Tissue staining: After dewaxing and rehydration, the paw plantar skin tissue sections of the above rats were stained in a hematoxylin solution for several minutes, cleaned, and placed in 1% acid alcohol for soaking until the sections faded to light blue-red. After cleaning with running water for 5 minutes, the sections were stained with eosin for 2-3 minutes, cleaned to remove excess dyes, dehydrated, then permeabilized by adding xylene for several minutes, and sealed and fixed with a neutral resin. The stratum corneum was observed under an optical microscope, and the thickness of the epidermal stratum corneum was measured using Dmetrix software.
Immunohistochemical staining: After dewaxing and hydration, the paw plantar skin tissue sections of the above rats were incubated with 3% H2O2 at room temperature for 30 minutes and blocked with 10% goat serum for 30 minutes after antigen retrieval. A KRT1 antibody (Abcam, ab93652) and a Loricrin antibody (Abcam, ab183646) were added dropwise, the sections were incubated overnight at 4°C, and an HRP secondary antibody (ZSGB-BIO, PV-6001) and a DAB kit (ZSG-BIO, ZLI9017) were added for color development. The sections were re-stained with hematoxylin, cleaned, and sealed and fixed with a neutral resin, and the expression amounts of KRT1 and Loricrin were observed under an optical microscope.
An incidence rate calculation method involves a proportion of animals in each group meeting the above criteria for determining successful modeling, that is, incidence rate = (number of successfully modeled rats/total number of rats in the group)*100%. […]

[2] = test system: chemotherapeutic drug-induced mouse model with hand-foot syndrome; assay: chemotherapeutic drug-induced mouse model with hand-foot syndrome; assay type: in vivo, ICR mice; settings: for infiltration of inflammatory cells / thickening of the epidermal layer and the stratum corneum in the skin tissues / swelling of the toes caused by the modeling drugs: capecitabine and docetaxel models; for infiltration of inflammatory cells / thickening of the epidermal layer and the stratum corneum in the skin tissues / expression level of cytokine IL-8 in the skin tissues of the hind limb toes of the mice / expression level of cytokine IL-6 in the skin tissues of the hind limb toes of the mice: 3% ointment topical or nicotinamide 100 mg/kg oral; for swelling of the toes caused by the modeling drugs: compound of formula (I) 3% ointment topical or nicotinamide 100 mg/kg oral, once daily 16 days; for expression level of cytokine IL-8 in the skin tissues of the hind limb toes of the mice: capecitabine model; for expression level of cytokine IL-6 in the skin tissues of the hind limb toes of the mice: docetaxel model
Excerpt: After adaptive feeding for 7 days, SPF-grade ICR mice (male, 5-6 weeks old, with a body weight of approximately 35 g) were randomly divided into groups, including a blank control group (6 mice), a capecitabine modeling group (6 mice), a docetaxel modeling group (6 mice), a capecitabine + compound of formula (I) group (6 mice), a docetaxel + compound of formula (I) group (6 mice), a capecitabine + nicotinamide group (6 mice), and a docetaxel + nicotinamide group (6 mice). The groups were respectively administered corresponding modeling drugs by oral gavage (capecitabine at 200 mg/kg and docetaxel at 25 mg/kg) once daily; and the blank control group was administered an equivalent volume of normal saline. After administration with the chemotherapeutic drugs for 2 weeks, the ointments containing the compound of formula (I) (at a compound content of 3%) used in Example 10 were respectively applied topically in the groups, or nicotinamide was orally administered (100 mg/kg) once daily continuously for 16 days.
Measurement of the degree of swelling of toes: The degree of swelling of hind limb toes of the mice was measured using a toe swelling tester (KW-7C, Nanjing Calvin Biotechnology Co., Ltd.) before administration with the modeling drugs, after administration with the modeling drugs for 2 weeks, and before sacrifice, respectively. Before measurement, ankle joints of hind feet of the mice were marked at same positions before administration, after administration for 2 weeks, and before sacrifice. During measurement, water was properly located at the same level as the marked positions, and numerical values were recorded after becoming stable.
Pathological staining of skin tissues: Skin tissue samples were selected from hind limb toes of the mice and placed in 4% paraformaldehyde for fixation at room temperature for 4 hours. Then, the tissues were taken out and rinsed with running water for several hours. The samples were subjected to dehydration treatment with 70%, 80%, and 90% ethanol solutions, followed by treatment with a mixed solution of equal amounts of absolute alcohol and xylene for 15 minutes, and then permeabilized twice with a xylene solution for 15 minutes each time until the samples became transparent. The samples were placed in a mixture of half xylene and half paraffin for soaking for 15 minutes, and then, paraffin I and paraffin II were added for wax penetration for one hour, respectively. After embedding with paraffin, the samples were sectioned, baked, dewaxed, and hydrated. Then, the hydrated sections were placed in a hematoxylin solution (ZSGB-BIO, article No. 23041001) for staining for 3 minutes, and a differentiation solution of hydrochloric acid in ethanol was added for differentiation for 15 seconds. After rinsing with water, a Scott bluing solution (Servicebio, article No. 20230801) was added for bluing for 15 seconds. After rinsing with running water, the sections were stained with an eosin solution (Solarbio, article No. 33535) for 3 minutes, rinsed with running water, dehydrated, permeabilized, sealed, and inspected under a microscope.
Immunohistochemical staining: After baking, dewaxing, and hydration, paraffin sections of skin tissues of hind limb toes of the mice were subjected to antigen retrieval using a 0.2 M citric acid buffer solution (containing 1.534 g of citric acid, 3.1 g of sodium citrate, and 100 mL of distilled water, pH 4.7). Endogenous […] was removed using 3% hydrogen peroxide (Shandong Annjet High-Tech Disinfection Technology Co., Ltd., article No. 20290902), and the sections were incubated at room temperature for 10 minutes and then fully rinsed with a PBS buffer solution (containing 8 g of NaCl, 0.2 g of KCl, 1.44 g of Na2HPO4, and 1 M HCl, pH 7.4). The sections were permeabilized with 0.5% Triton-X-100 (AmyJet Scientific, article No. A-CSH436-100 mL), respectively permeabilized with mouse anti-IL-1β and rabbit IL-8 for 10 minutes, and not permeabilized with rabbit anti-IL-6. […]

[3] = modeling drug alone by gavage once daily 30 days (Sorafenib 100, Erlotinib 70, Afatinib 50, Osimertinib 60 mg/kg), no test compound

NC(=O)[C@H]1CCCc2c1[nH]c1ccc(Cl)cc21 [Compound of formula (I), (S)-6-chloro-2,3,4,9-tetrahydro-1H-carbazole-carboxamide]
Incidence rate Left paw ([1]; Afatinib 50 mg/kg model, 1% ointment on left paw, once daily 30 days): 3/12 (25%)
Incidence rate Left paw ([1]; Afatinib 50 mg/kg model, 3% ointment on left paw, once daily 30 days): 2/12 (17%)
Incidence rate Left paw ([1]; Afatinib 50 mg/kg model, 10% ointment on left paw, once daily 30 days): 0/12 (0%)
Incidence rate Right paw ([1]; Afatinib 50 mg/kg model, right paw with blank matrix ointment, 1% ointment on left paw, 30 days): 9/12 (75%)
Incidence rate Right paw ([1]; Afatinib 50 mg/kg model, right paw with blank matrix ointment, 3% ointment on left paw, 30 days): 4/12 (33%)
Incidence rate Right paw ([1]; Afatinib 50 mg/kg model, right paw with blank matrix ointment, 10% ointment on left paw, 30 days): 3/12 (25%)
Incidence rate Left paw ([1]; Erlotinib 70 mg/kg model, 1% ointment on left paw, once daily 30 days): 3/12 (25%)
Incidence rate Left paw ([1]; Erlotinib 70 mg/kg model, 3% ointment on left paw, once daily 30 days): 2/12 (17%)
Incidence rate Left paw ([1]; Erlotinib 70 mg/kg model, 10% ointment on left paw, once daily 30 days): 1/12 (8%)
Incidence rate Right paw ([1]; Erlotinib 70 mg/kg model, right paw with blank matrix ointment, 1% ointment on left paw, 30 days): 10/12 (83%)
Incidence rate Right paw ([1]; Erlotinib 70 mg/kg model, right paw with blank matrix ointment, 3% ointment on left paw, 30 days): 5/12 (42%)
Incidence rate Right paw ([1]; Erlotinib 70 mg/kg model, right paw with blank matrix ointment, 10% ointment on left paw, 30 days): 4/12 (33%)
Incidence rate Left paw ([1]; Osimertinib 60 mg/kg model, 1% ointment on left paw, once daily 30 days): 2/12 (17%)
Incidence rate Left paw ([1]; Osimertinib 60 mg/kg model, 3% ointment on left paw, once daily 30 days): 2/12 (17%)
Incidence rate Left paw ([1]; Osimertinib 60 mg/kg model, 10% ointment on left paw, once daily 30 days): 0/12 (0%)
Incidence rate Right paw ([1]; Osimertinib 60 mg/kg model, right paw with blank matrix ointment, 1% ointment on left paw, 30 days): 8/12 (67%)
Incidence rate Right paw ([1]; Osimertinib 60 mg/kg model, right paw with blank matrix ointment, 3% ointment on left paw, 30 days): 4/12 (33%)
Incidence rate Right paw ([1]; Osimertinib 60 mg/kg model, right paw with blank matrix ointment, 10% ointment on left paw, 30 days): 3/12 (25%)
Incidence rate Left paw ([1]; Sorafenib 100 mg/kg model, 1% ointment on left paw, once daily 30 days): 2/12 (17%)
Incidence rate Left paw ([1]; Sorafenib 100 mg/kg model, 3% ointment on left paw, once daily 30 days): 2/12 (17%)
Incidence rate Left paw ([1]; Sorafenib 100 mg/kg model, 10% ointment on left paw, once daily 30 days): 0/12 (0%)
Incidence rate Right paw ([1]; Sorafenib 100 mg/kg model, right paw with blank matrix ointment, 1% ointment on left paw, 30 days): 9/12 (75%)
Incidence rate Right paw ([1]; Sorafenib 100 mg/kg model, right paw with blank matrix ointment, 3% ointment on left paw, 30 days): 4/12 (33%)
Incidence rate Right paw ([1]; Sorafenib 100 mg/kg model, right paw with blank matrix ointment, 10% ointment on left paw, 30 days): 4/12 (33%)
stratum corneum thickness of the paw plantar skin of the modeled rats ([1]; ointment on paw of modeled rats): effectively decrease
incidence rate of hand-foot skin reaction at a drug application site ([1]; ointment, mass content of 1%): significantly decrease
incidence rate of hand-foot skin reaction in all paws of the rats ([1]; ointment, mass content of 3% and 10%): significantly decrease
formation of blisters in the epidermis and subepidermis caused by the modeling drugs ([1]; pathological scoring (FIG. 10)): effectively alleviate
inflammatory cell infiltration in the dermis ([1]; pathological scoring (FIG. 10)): inhibit
skin congestion phenomenon ([1]; pathological scoring (FIG. 10)): significantly alleviate
formation of blisters in the epidermis and subepidermis caused by the modeling drugs ([1]; tissue staining (FIG. 9)): effectively alleviate
inflammatory cell infiltration in the dermis ([1]; tissue staining (FIG. 9)): inhibit
skin congestion phenomenon ([1]; tissue staining (FIG. 9)): significantly alleviate
infiltration of inflammatory cells [2]: no infiltration of inflammatory cells observed
thickening of the epidermal layer and the stratum corneum in the skin tissues [2]: effectively alleviate
swelling of the toes caused by the modeling drugs [2]: significantly alleviate
expression level of cytokine IL-8 in the skin tissues of the hind limb toes of the mice [2]: significantly decrease
expression level of cytokine IL-6 in the skin tissues of the hind limb toes of the mice [2]: significantly decrease

NC(=O)c1cccnc1 [Nicotinamide, nicotinamide]
infiltration of inflammatory cells [2]: infiltration of inflammatory cells still observed
thickening of the epidermal layer and the stratum corneum in the skin tissues [2]: mildly alleviated
swelling of the toes caused by the modeling drugs [2]: not observed that oral administration of nicotinamide at 100 mg/kg significantly alleviated the swelling
expression level of cytokine IL-8 in the skin tissues of the hind limb toes of the mice [2]: didn't have a significant impact
expression level of cytokine IL-6 in the skin tissues of the hind limb toes of the mice [2]: didn't have a significant impact

C=CC(=O)Nc1cc(Nc2nccc(-c3cn(C)c4ccccc34)n2)c(OC)cc1N(C)CCN(C)C [Osimertinib, osimertinib]
KRT1 and Loricrin in tissues ([1]; rat, in vivo): significantly increased
stratum corneum thickness of the paw plantar skin ([1]; rat, in vivo): significantly higher than that of normal rats

CNC(=O)c1cc(Oc2ccc(NC(=O)Nc3ccc(Cl)c(C(F)(F)F)c3)cc2)ccn1 [Sorafenib, sorafenib]
successful modeling rates for the hand-foot skin reaction ([1]; SD rats, once daily by gavage: sorafenib 100, erlotinib 70, afatinib 50, osimertinib 60 mg/kg): 75%
KRT1 and Loricrin in tissues ([1]; immunohistochemical staining, successfully modeled rats, modeling drug alone): significantly increased
Incidence rate Left paw [1, 3]: 9/12 (75%)
Incidence rate Right paw [1, 3]: 9/12 (75%)
stratum corneum thickness of the paw plantar skin ([1]; successfully modeled rats, modeling drug alone, vs normal rats): significantly higher than that of normal rats
